Laboratory results published in publication PMC10247784, “Physiological activation of human and mouse bitter taste receptors by bile acids” (Communications Biology, 2023).

Biological target: T1, mouse Tas2r105 (Mus musculus, UniProt Q9JKT4)
T1 construct: expressed in transfected cells; host or cells: HEK293T-Gα16gust44
T1 sequence (Q9JKT4 1-300): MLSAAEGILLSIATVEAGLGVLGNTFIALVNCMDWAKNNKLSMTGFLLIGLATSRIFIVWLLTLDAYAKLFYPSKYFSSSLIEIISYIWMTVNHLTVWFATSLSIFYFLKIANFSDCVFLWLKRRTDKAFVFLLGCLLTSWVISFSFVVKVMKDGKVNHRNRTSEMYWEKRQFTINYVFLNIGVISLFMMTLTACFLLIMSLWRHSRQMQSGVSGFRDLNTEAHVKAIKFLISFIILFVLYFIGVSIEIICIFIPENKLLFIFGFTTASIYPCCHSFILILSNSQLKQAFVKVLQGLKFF
Assay: Calcium imaging assay (FLIPR), HEK293T-Gα16gust44 cells transfected with mouse Tas2r105
Format: cell-based
Protocol: This set of bile acids was chosen because of their commercial availability in high purities, their diversity within the class of bile acids and their previous detection and quantitation in human blood. Stock solutions were prepared in DMSO.
As basal growth medium for the HEK293T-Gα16gust44 cell line[17],[59] served Dulbecco’s modified eagle medium (DMEM) (Thermo Fisher Scientific, Darmstadt, Germany) supplemented with 10 % fetal bovine serum (Sigma-Aldrich, Steinheim, Germany), 2 mM L-glutamine (Sigma-Aldrich, Steinheim, Germany), 100 units/ml penicillin (Sigma Aldrich, Steinheim, Germany) and 100 µg/ml streptomycin (Sigma Aldrich, Steinheim, Germany). Growth conditions were 37 °C, 5 % CO2 and saturated air-humidity[60].
HEK293T-Gα16gust44 cells were seeded on poly-D-lysine (10 µg/ml) coated 96-well plates to reach a confluence of 40-60 % the next day. For transient transfection 150 ng of plasmid DNA containing the receptor of interest and 0.3 µl lipofectamine 2000 (Thermo Fisher Scientific, Darmstadt, Germany) per well were used and transfection took place according to the manual of lipofectamine 2000. […] The empty vector DNA (mock) was transfected as negative control[14],[41].
Cells were loaded using the calcium-sensitive fluorescent dye Fluo-4-AM (Abcam, Cambridge, Great Britain) in the presence of 2.5 mM probenecid (Sigma-Aldrich, Steinheim, Germany) the day after transfection[13],[41]. 1 h after loading, cells were washed with C1 buffer using a BioTek Cell Washer, incubated in the dark for half an hour and washed again. For automated agonist application and measurement of fluorescence changes, a FLIPR^TETRA device (Molecular Devices, San José, United States) was used. Viability of cells was tested by application of 100 nM Somatostatin 14 (Bachem, Bubendorf, Switzerland)[42].
Measured data were negative control corrected by subtracting the signal of the mock-transfected cells and exported to Microsoft Excel using the FLIPR software ScreenWorks 4.2. In Microsoft Excel software, standardization of maximum fluorescence intensities to the basal fluorescence and normalization to the buffer-only control was done to calculate the relative fluorescence changes (ΔF/F).
Initial screening experiments performed in duplicate wells were confirmed by at least one replication and representative traces were selected for display. All dose-response relationships were determined by three independent experiments (biological replicates) performed in duplicates (technical replicates). Threshold concentrations, defined as lowest substance concentrations leading to statistically significant elevated fluorescence changes in receptor-transfected cells compared with empty vector-transfected cells, were determined using SigmaPlot with Student’s t-test to evaluate statistical significance (p < 0.01).

C[C@H](CCC(=O)O)[C@H]1CC[C@H]2[C@@H]3CC[C@@H]4C[C@H](O)CC[C@]4(C)[C@H]3CC[C@]12C [Lithocholic Acid, lithocholic acid]
RLU (Time 0 s): 0 RLU | RLU (Time 2 s): -19.9183 RLU | RLU (Time 4 s): 19.2865 RLU | RLU (Time 6 s): -6.64 RLU | RLU (Time 8 s): 9.805 RLU | RLU (Time 12 s): 17.7969 RLU | RLU (Time 14 s): 8.271 RLU | RLU (Time 16 s): -2.182 RLU | RLU (Time 18 s): 5.571 RLU | RLU (Time 18.781 s): 8.9 RLU | RLU (Time 20.781 s): -20.4639 RLU | RLU (Time 22.781 s): -20.313 RLU | RLU (Time 24.781 s): 13.8358 RLU | RLU (Time 26.781 s): 13.4767 RLU | RLU (Time 28.781 s): 5.266 RLU | RLU (Time 30.781 s): -9.837 RLU | RLU (Time 32.781 s): 8.574 RLU | RLU (Time 34.781 s): 27.1912 RLU | RLU (Time 36.781 s): 18.0239 RLU | RLU (Time 38.781 s): 6.659 RLU | RLU (Time 40.781 s): 53.7499 RLU | RLU (Time 42.781 s): 49.1517 RLU | RLU (Time 44.781 s): 47.3635 RLU | RLU (Time 46.781 s): 50.4831 RLU | RLU (Time 48.781 s): 74.4289 RLU | RLU (Time 50.781 s): 93.6056 RLU | RLU (Time 52.781 s): 63.4969 RLU | RLU (Time 54.781 s): 82.9174 RLU | RLU (Time 56.781 s): 91.8724 RLU | RLU (Time 58.781 s): 82.9428 RLU | RLU (Time 60.781 s): 110.605 RLU | RLU (Time 62.781 s): 104.538 RLU | RLU (Time 64.781 s): 112.529 RLU | RLU (Time 66.781 s): 137.104 RLU | RLU (Time 68.781 s): 132.36 RLU | RLU (Time 70.781 s): 132.904 RLU | RLU (Time 72.781 s): 132.041 RLU | RLU (Time 74.781 s): 144.653 RLU | RLU (Time 76.781 s): 172.509 RLU | RLU (Time 78.781 s): 142.279 RLU | RLU (Time 80.781 s): 151.243 RLU | RLU (Time 82.781 s): 167.63 RLU | RLU (Time 84.781 s): 195.966 RLU | RLU (Time 86.781 s): 203.204 RLU | RLU (Time 88.781 s): 204.712 RLU | RLU (Time 90.781 s): 215.59 RLU | RLU (Time 92.781 s): 209.022 RLU | RLU (Time 94.781 s): 228.864 RLU | RLU (Time 96.781 s): 184.288 RLU | RLU (Time 98.781 s): 227.541 RLU | RLU (Time 100.781 s): 248.863 RLU | RLU (Time 102.781 s): 222.595 RLU | RLU (Time 104.781 s): 217.502 RLU | RLU (Time 106.781 s): 225.971 RLU | RLU (Time 108.781 s): 244.356 RLU | RLU (Time 110.781 s): 261.979 RLU | RLU (Time 112.781 s): 241.216 RLU | RLU (Time 114.781 s): 243.367 RLU | RLU (Time 116.781 s): 246.887 RLU | RLU (Time 118.781 s): 257.566 RLU | RLU (Time 120.781 s): 260.092 RLU | RLU (Time 122.781 s): 284.505 RLU | RLU (Time 124.781 s): 270.165 RLU | RLU (Time 126.781 s): 278.83 RLU | RLU (Time 128.781 s): 309.382 RLU | RLU (Time 130.781 s): 309.382 RLU | RLU (Time 132.781 s): 310.252 RLU | RLU (Time 134.781 s): 282.326 RLU | RLU (Time 136.781 s): 279.582 RLU | RLU (Time 137.562 s): 296.261 RLU | RLU (Time 143.562 s): 310.291 RLU | RLU (Time 149.562 s): 291.585 RLU | RLU (Time 155.562 s): 301.792 RLU | RLU (Time 161.562 s): 299.079 RLU | RLU (Time 167.562 s): 303.398 RLU | RLU (Time 173.562 s): 315.378 RLU | RLU (Time 179.562 s): 314.187 RLU | RLU (Time 185.562 s): 308.746 RLU | RLU (Time 191.562 s): 287.017 RLU | RLU (Time 197.562 s): 315.242 RLU | RLU (Time 203.562 s): 299.639 RLU | RLU (Time 209.562 s): 295.067 RLU | RLU (Time 215.562 s): 316.647 RLU | RLU (Time 221.562 s): 272.857 RLU | RLU (Time 227.562 s): 314.132 RLU | RLU (Time 233.562 s): 269.771 RLU | RLU (Time 239.562 s): 270.901 RLU | RLU (Time 245.562 s): 241.175 RLU | RLU (Time 293.562 s): 236.399 RLU | RLU (Time 299.562 s): 209.696 RLU | RLU (Time 305.562 s): 212.529 RLU | RLU (Time 311.562 s): 180.625 RLU | RLU (Time 317.562 s): 178.726 RLU | RLU (Time 323.562 s): 162.84 RLU | RLU (Time 329.562 s): 185.237 RLU | RLU (Time 335.562 s): 178.412 RLU | RLU (Time 341.562 s): 163.583 RLU | RLU (Time 347.562 s): 148.887 RLU | RLU (Time 353.562 s): 153.613 RLU | RLU (Time 359.562 s): 155.912 RLU | Activation threshold concentration Tas2r105 (p < 0.01 vs empty vector): 3 µM

C[C@H](CCC(=O)NCCS(=O)(=O)O)[C@H]1CC[C@H]2[C@@H]3[C@H](O)C[C@@H]4C[C@H](O)CC[C@]4(C)[C@H]3C[C@H](O)[C@]12C [Taurocholic Acid, taurocholic acid]
Receptor response Tas2r105 (screening): lack of taurocholic acid responsiveness
